This is an account of results in US7598258B2, “Quinoline derivatives and quinazoline derivatives inhibiting autophosphorylation of macrophage colony stimulating factor receptor” (Kirin Beer Kabushiki Kaisha, priority 2002, dated 2009).

The structures appear in SMILES notation.

The target of the assay is T1, mouse c-fms (Mus musculus, UniProt P09581).
T1 construct: Macrophage-like cell line BAC-1.2F5 which expresses c-fms as a M-CSF receptor on cell membranes; endogenous in cells; host or cells: BAC-1.2F5 mouse macrophage-like cell line
T1 sequence (P09581 20-977): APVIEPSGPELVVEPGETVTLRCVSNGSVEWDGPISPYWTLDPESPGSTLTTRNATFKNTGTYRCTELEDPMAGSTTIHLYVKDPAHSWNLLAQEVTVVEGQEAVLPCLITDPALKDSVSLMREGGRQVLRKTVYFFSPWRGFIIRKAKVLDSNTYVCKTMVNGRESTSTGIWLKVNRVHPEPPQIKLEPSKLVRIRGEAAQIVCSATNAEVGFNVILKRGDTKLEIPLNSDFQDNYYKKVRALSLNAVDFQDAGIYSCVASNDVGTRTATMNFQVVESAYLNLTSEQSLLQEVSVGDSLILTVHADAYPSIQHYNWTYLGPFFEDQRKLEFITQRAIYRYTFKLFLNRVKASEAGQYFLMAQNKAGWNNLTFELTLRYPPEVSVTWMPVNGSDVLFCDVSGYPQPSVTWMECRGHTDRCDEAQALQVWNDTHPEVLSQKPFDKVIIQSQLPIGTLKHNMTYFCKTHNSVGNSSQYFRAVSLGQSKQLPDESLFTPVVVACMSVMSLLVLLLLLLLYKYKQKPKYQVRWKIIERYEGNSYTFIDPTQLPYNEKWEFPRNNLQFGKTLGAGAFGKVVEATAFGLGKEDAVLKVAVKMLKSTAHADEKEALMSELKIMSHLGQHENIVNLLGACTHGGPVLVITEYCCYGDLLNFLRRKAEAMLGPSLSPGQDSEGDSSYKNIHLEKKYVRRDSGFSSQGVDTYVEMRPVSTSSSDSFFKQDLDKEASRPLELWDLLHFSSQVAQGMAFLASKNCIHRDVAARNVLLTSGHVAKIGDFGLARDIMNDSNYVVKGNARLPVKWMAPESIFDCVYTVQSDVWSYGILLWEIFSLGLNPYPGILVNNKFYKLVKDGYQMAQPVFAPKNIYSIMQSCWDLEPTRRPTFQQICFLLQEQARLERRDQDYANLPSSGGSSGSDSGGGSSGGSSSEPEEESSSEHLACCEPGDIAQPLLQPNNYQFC
Put plainly: Inhibition of c-fms autophosphorylation in macrophage-like cell line BAC-1.2F5 by M-CSF stimulation (ELISA). Conditions: BAC-1.2F5 cells, human recombinant M-CSF 50 ng/ml, read-out: c-fms autophosphorylation 50% inhibitory concentration (IC50). In kind it is cell-based. The method, boiled down: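 BAC-1.2F5 cells serum-starved (0.1% FCS) 12 h, preincubated with compound 1 h at 37° C, then stimulated 6 min with 50 ng/ml human recombinant M-CSF. Lysates captured on anti-phosphotyrosine plates, detected with anti-c-fms antiserum and peroxidase read-out at 450 nm. IC50 from inhibition normalised between ±M-CSF controls.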
Take `COc1cc2nccc(Oc3ccc(NC(=O)N[C@@H](C)c4cccc(Br)c4)cc3)c2cc1OC` [Example 46, N-[(1S)-1-(3-Bromophenyl)ethyl]-N′-{4-[(6,7-dimethoxy-4-quinolyl)oxy]phenyl}urea]: the IC50 came out at 7.3 nM.
As for `COc1cc2nccc(Oc3ccc(NC(=O)N[C@H](C)c4ccc([N+](=O)[O-])cc4)cc3)c2cc1OC` [Example 36, N-{4-[(6,7-Dimethoxy-4-quinolyl)oxy]phenyl}-N′-[(1R)-1-(4-nitrophenyl)ethyl]urea], the IC50 was 31.1 nM.
With `COc1cc2nccc(Oc3ccc(NC(=O)N[C@@H](C)c4ccc(C)cc4)cc3)c2cc1OC` [Example 41, N-{4-[(6,7-Dimethoxy-4-quinolyl)oxy]phenyl}-N′-[(1S)-1-(4-methylphenyl)ethyl]urea] the figure was 2.8 nM; with `COc1cc2nccc(Oc3ccc(NC(=O)N[C@@H](C)c4ccc(Cl)cc4)cc3)c2cc1OC` [Example 47, N-[(1S)-1-(4-Chlorophenyl)ethyl]-N′-{4-[(6,7-dimethoxy-4-quinolyl)oxy]phenyl}urea], 3.8 nM.
On to `COc1cc2nccc(Oc3ccc(NC(=O)N[C@H](C)c4ccc(Cl)cc4)cc3)c2cc1OC` [Example 48, N-[(1R)-1-(4-Chlorophenyl)ethyl]-N′-{4-[(6,7-dimethoxy-4-quinolyl)oxy]phenyl}urea], for which the IC50 was found to be 40 nM.
The same measure for `COc1cccc([C@H](C)NC(=O)Nc2ccc(Oc3ccnc4cc(OC)c(OC)cc34)cc2)c1` [Example 49, N-{4-[(6,7-Dimethoxy-4-quinolyl)oxy]phenyl}-N′-[(1S)-1-(3-methoxyphenyl)ethyl]urea]: 3.2 nM; for `COc1cc2nccc(Oc3ccc(NC(=O)N[C@H](C)c4ccc(C)cc4)cc3)c2cc1OC` [Example 42, N-{4-[(6,7-Dimethoxy-4-quinolyl)oxy]phenyl}-N′-[(1R)-1-(4-methylphenyl)ethyl]urea]: 38.5 nM.
With `COc1cc2nccc(Oc3ccc(NC(=O)N[C@@H](C)c4ccc(F)cc4)cc3)c2cc1OC` [Example 2, N-{4-[(6,7-Dimethoxy-4-quinolyl)oxy]phenyl}-N′-[(1S)-1-(4-fluorophenyl)ethyl]urea] the figure was 2.2 nM.
With `COc1cc2nccc(Oc3ccc(NC(=O)N[C@H](C)c4cccc(Br)c4)cc3)c2cc1OC` [Example 45, N-[(1R)-1-(3-Bromophenyl)ethyl]-N′-{4-[(6,7-dimethoxy-4-quinolyl)oxy]phenyl}urea] the figure was 22.2 nM; with `COc1cc2nccc(Oc3ccc(NC(=O)N[C@@H](C)c4ccc([N+](=O)[O-])cc4)cc3)c2cc1OC` [Example 35, N-{4-[(6,7-Dimethoxy-4-quinolyl)oxy]phenyl}-N′-[(1S)-1-(4-nitrophenyl)ethyl]urea], 12.1 nM; with `COc1cccc([C@@H](C)NC(=O)Nc2ccc(Oc3ccnc4cc(OC)c(OC)cc34)cc2)c1` [Example 50, N-{4-[(6,7-Dimethoxy-4-quinolyl)oxy]phenyl}-N′-[(1R)-1-(3-methoxyphenyl)ethyl]urea], 7.2 nM.
On to `COc1cc2nccc(Oc3ccc(NC(=O)N[C@H](C)c4ccc(F)cc4)cc3)c2cc1OC` [Example 3, N-{4-[(6,7-Dimethoxy-4-quinolyl)oxy]phenyl}-N′-[(1R)-1-(4-fluorophenyl)ethyl]urea], for which the IC50 came to 2.4 nM.
